# According to US20240270762A1, “PENICILLIN-BINDING PROTEIN INHIBITORS” (priority 2021, published 2024):
# pEC50: −log10 of the molar value.
# How the values were obtained:
# A. baumannii PBP2 = A. baumannii PBP2 (Acinetobacter baumannii, UniProt D0C8Z9); experiment: Bocillin-FL competition binding via gel filtration, A. baumannii PBP2
# Procedure: (§1) Affinity to A. baumannii PBP1a and PBP2 was assessed a competitive equilibrium binding assay using Bocillin-FL as the reporter molecule. Enzyme was pre-incubated with increasing concentrations of inhibitors, prior to addition of Bocillin and further incubation for 15 minutes. PBP bound with Bocillin-FL was separated by gel filtration using 96-well Zeba Spin size exclusion plates, and the fluorescence measured. The inhibitor affinity (reported as the EC50) was determined by plotting the fraction of PBP bound with Bocillin-FL at each inhibitor concentration against the inhibitor concentration, and fitting the data to the following equation:
# (§2) [formula] • where y is the fraction bound at a given inhibitor concentration, ymin is the fraction bound when the enzyme is completely inactivated, ymax is the maximum (uninhibited) fraction bound, n is the Hill coefficient, and x is the inhibitor concentration.
# [1] = system: B. thailandensis ATCC 700388; experiment: microbe, parasite or virus in culture; assay type: cell-based; conditions: Burkholderia thailandensis, ATCC700388, read-out: Minimum inhibitory concentration (MIC), B. thailandensis ATCC 700388
# A. baumannii PBP1a = biological target: T1, A. baumannii PBP1a (Acinetobacter baumannii, UniProt A0ABX6CK30); experiment: Bocillin-FL competition binding via gel filtration, A. baumannii PBP1a; conditions: competition binding assay using Bocillin-FL via gel filtration; read-out: A. baumannii PBP1a Potency
# T1 sequence (A0ABX6CK30 1-851): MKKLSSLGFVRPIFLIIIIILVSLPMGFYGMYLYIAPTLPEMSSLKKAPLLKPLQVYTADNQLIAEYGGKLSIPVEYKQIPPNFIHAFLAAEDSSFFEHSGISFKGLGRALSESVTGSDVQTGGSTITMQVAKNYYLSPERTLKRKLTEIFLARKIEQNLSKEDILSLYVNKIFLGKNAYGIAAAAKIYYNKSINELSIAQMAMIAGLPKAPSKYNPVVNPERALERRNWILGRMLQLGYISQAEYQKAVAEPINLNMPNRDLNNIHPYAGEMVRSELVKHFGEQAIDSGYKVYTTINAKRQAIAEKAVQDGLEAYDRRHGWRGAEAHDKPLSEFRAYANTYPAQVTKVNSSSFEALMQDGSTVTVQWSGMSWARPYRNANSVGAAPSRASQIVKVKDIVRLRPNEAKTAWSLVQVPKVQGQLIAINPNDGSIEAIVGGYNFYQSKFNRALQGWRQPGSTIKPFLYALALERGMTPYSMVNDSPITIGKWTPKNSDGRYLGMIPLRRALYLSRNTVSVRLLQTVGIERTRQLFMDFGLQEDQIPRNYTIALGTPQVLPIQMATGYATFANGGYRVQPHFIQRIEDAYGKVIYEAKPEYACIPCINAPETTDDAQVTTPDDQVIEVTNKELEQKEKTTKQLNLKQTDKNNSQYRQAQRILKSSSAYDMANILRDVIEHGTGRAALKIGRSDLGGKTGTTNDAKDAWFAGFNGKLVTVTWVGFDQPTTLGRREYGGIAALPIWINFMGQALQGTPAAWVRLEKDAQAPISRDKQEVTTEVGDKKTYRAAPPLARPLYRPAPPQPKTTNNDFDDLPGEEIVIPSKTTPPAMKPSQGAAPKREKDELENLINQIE
# Procedure: as §1, §2
# [2] = system: B. humptydooensis ATCC BAA-2767; experiment: microbe, parasite or virus in culture; assay type: cell-based; conditions: Burkholderia humptydooensis, ATCCBAA2767, read-out: Minimum inhibitory concentration (MIC), B. humptydooensis ATCC BAA-2767
# A. baumannii PBP2, sequence (D0C8Z9 whole entry): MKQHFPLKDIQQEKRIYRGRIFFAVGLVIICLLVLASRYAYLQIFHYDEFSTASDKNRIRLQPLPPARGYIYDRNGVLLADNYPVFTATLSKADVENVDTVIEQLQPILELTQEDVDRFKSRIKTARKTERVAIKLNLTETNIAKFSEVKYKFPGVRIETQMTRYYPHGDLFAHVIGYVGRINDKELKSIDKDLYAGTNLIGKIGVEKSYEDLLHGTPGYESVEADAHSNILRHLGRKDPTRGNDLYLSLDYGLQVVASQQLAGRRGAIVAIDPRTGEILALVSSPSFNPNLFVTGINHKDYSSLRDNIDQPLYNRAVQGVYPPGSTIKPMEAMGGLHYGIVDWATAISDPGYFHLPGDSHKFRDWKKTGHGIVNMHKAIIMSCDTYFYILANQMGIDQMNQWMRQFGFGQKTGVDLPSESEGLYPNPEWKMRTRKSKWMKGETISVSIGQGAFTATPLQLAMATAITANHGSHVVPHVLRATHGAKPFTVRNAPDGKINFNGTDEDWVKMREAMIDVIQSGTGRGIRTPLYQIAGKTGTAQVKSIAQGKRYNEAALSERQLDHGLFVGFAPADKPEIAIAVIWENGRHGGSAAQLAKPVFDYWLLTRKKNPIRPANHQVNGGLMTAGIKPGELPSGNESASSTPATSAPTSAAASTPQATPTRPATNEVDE
Structure (SMILES),pEC50 (A. baumannii PBP2),MIC [1] [µg/mL],pEC50 (A. baumannii PBP1a),MIC [2] [µg/mL]
"O=C(O)c1c(F)ccc2c1OB(O)[C@@H](NC(=O)C(NC(=O)N1CCN(C3CCN(Cc4ccc(F)c(O)c4)CC3)C1=O)c1cc(F)c(O)c(O)c1Cl)C2 (single isomer, unassigned) [Example 606]",4.30 to 5.00,< 1,> 5.00,< 1
"O=C(O)c1c(F)ccc2c1OB(O)[C@@H](NC(=O)[C@H](NC(=O)N1CCN(C3CCN(Cc4cc(O)cc(F)c4)CC3)C1=O)c1cc(F)c(O)c(O)c1Cl)C2 (single isomer, unassigned) [Example 607]",4.30 to 5.00,< 1,> 5.00,< 1
"O=C(O)c1c(F)ccc2c1OB(O)[C@@H](NC(=O)[C@H](NC(=O)N1CCN(C3CCN(Cc4cc(O)ccc4F)CC3)C1=O)c1cc(F)c(O)c(O)c1Cl)C2 (single isomer, unassigned) [Example 608]",4.30 to 5.00,< 1,> 5.00,< 1
"O=C(O)c1c(F)ccc2c1OB(O)[C@@H](NC(=O)C(NC(=O)N1CCN(C3CCN(Cc4ccc(O)cc4F)CC3)C1=O)c1cc(F)c(O)c(O)c1Cl)C2 (single isomer, unassigned) [Example 611]",4.30 to 5.00,< 1,> 5.00,< 1
"NCc1cccc(CN2CCC(N3CCN(C(=O)N[C@@H](C(=O)N[C@H]4Cc5ccc(F)c(C(=O)O)c5OB4O)c4cc(F)c(O)c(O)c4Cl)C3=O)CC2)c1 (single isomer, unassigned) [Example 613]",4.30 to 5.00,< 1,4.30 to 5.00,< 1
"O=C(O)c1c(F)ccc2c1OB(O)[C@@H](NC(=O)C(NC(=O)N1CCN(C3CCN(S(=O)(=O)c4cc(O)cc(O)c4)CC3)C1=O)c1cc(F)c(O)c(O)c1Cl)C2 (stereo partly drawn) [Example 600, (3R)-3-(2-(2-chloro-5-fluoro-3,4-dihydroxyphenyl)-2-(3-(1-((3,5-dihydroxyphenyl)sulfonyl)piperidin-4-yl)-2-oxoimidazolidine-1-carboxamido)acetamido)-7-fluoro-2-hydroxy-3,4-dihydro-2H-benzo[e][1,2]oxaborinine-8-carboxylic acid]",> 5.00,> 128,> 5.00,> 128
